Experimental data: PubChem BioAssay (NCI)
Several values for one entry are separate records, joined by “and”; a condition that tells them apart may be missing. Equal values may be shown once.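 Five compound concentrations were applied to cells in 96-well plates for 48 hours; endpoints were derived by simple linear interpolation of the resulting dose-response curve. GI50: concentration for 50% inhibition of growth. TGI: total growth inhibition.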

Experiments:
Assay in all cases: NCI anticancer screen, dose series, 48 h
[1] = tested on: HCC-2998 colon
[2] = tested on: HL-60(TB) leukemia
[3] = tested on: HOP-62 NSCLC
[4] = tested on: MALME-3M melanoma
[5] = tested on: NCI-H23 lung
[6] = tested on: NCI-H522 lung
[7] = tested on: SF-295 CNS
[8] = tested on: SK-OV-3 ovarian
[9] = tested on: SN12C renal
[10] = tested on: UO-31 renal

| Structure (SMILES) | GI50 [1] [µM] | TGI [1] [µM] | GI50 [2] [µM] | TGI [2] | GI50 [3] | TGI [3] | GI50 [4] | TGI [4] | GI50 [5] | TGI [5] | GI50 [6] | TGI [6] | GI50 [7] | TGI [7] | GI50 [8] | TGI [8] | GI50 [9] [µM] | TGI [9] | GI50 [10] [µM] | TGI [10] |
| --- | --- | --- | --- | --- | --- | --- | --- | --- | --- | --- | --- | --- | --- | --- | --- | --- | --- | --- | --- | --- |
| CSc1nc2sc3cc(Cl)ccc3n2c(=N)c1C#N | 18.5 | > 100 | 7.71 | > 100 µM | 45.4 µM | > 100 µM | 14.7 µM | > 100 µM | > 52 µM | > 100 µM | 62.7 µM | > 100 µM | 2.21 µM | 16.1 µM | 12.5 µM | > 100 µM | > 100 | > 100 µM | > 76.2 | > 100 µM |
| C1=Cc2nc1c(-c1ccncc1)c1ccc([n-]1)c(-c1ccncc1)c1nc(c(-c3ccncc3)c3ccc([n-]3)c2-c2ccncc2)C=C1.[Zn+2] | – | > 100 | – | > 100 µM | – | > 100 µM | – | > 100 µM | – | > 100 µM | – | > 100 µM | – | > 100 µM | – | > 100 µM | – | > 100 µM | – | > 100 µM |
| NC1=N/C(=C2/CCNC(=O)c3[nH]c(Br)cc32)C(=O)N1 | – | > 100 | – | 11.2 µM and 6.94 µM | – | > 100 µM | 8.82 µM and 25.1 µM | > 100 µM | – | > 100 µM | 7.44 µM and 2.54 µM | 32.5 µM and 17.4 µM | – | > 100 µM | 7.66 µM and 16.1 µM | > 100 µM | – | > 100 µM | – | > 73 µM and 29.8 µM |
| O=C1OC(O)C(Oc2ccc(Cl)cc2)=C1Cl (stereo not given) | – | > 100 | – | > 100 µM | – | > 100 µM | – | > 100 µM | – | > 100 µM | – | > 100 µM | – | > 100 µM | – | > 100 µM | – | > 100 µM | – | > 100 µM |
| N#CCCN(c1ccc(-c2nnc(NC(=O)CNNC(=O)CC(=O)Nc3ccccc3)s2)cc1)S(=O)(=O)c1ccccc1 | – | > 100 | – | > 100 µM | – | > 100 µM | – | > 100 µM | – | > 100 µM | – | > 100 µM | – | > 100 µM | – | > 100 µM | – | > 100 µM | – | > 100 µM |
| CO[C@@H]1[C@H](OC(=O)NC(=O)CCl)CC[C@]2(CO2)[C@H]1[C@@]1(C)O[C@@H]1CC=C(C)C | – | 10.8 | – | 14.8 µM | 9.11 µM and 0.958 µM | 41.1 µM and 44.9 µM | 4.16 µM | 18.5 µM and 18.7 µM | 2.99 µM and 5.94 µM | 37 µM and 30.8 µM | 1.23 µM and 7.41 µM | 3.99 µM and 16.8 µM and 33.8 µM | 6.62 µM and 4.21 µM | 18.7 µM and 38 µM | 2.52 µM and 20.8 µM | 39.5 µM and 59.2 µM | 3.27 | 31.3 µM and 25.7 µM | 16.1 | 26.6 µM and 46.2 µM |
| CC(C)(C)c1ccc(C(O)c2ccc(C(C)(C)C)cc2)cc1 | – | 35.6 | – | 35.6 µM | – | 30 µM | – | 30.4 µM | – | 25.5 µM | – | 22 µM | – | 27 µM | – | 27.8 µM | – | 25.8 µM | – | 29.7 µM |
| Cn1cc(C2=C(c3cn(CCN)c4ccccc34)C(=O)NC2=O)c2ccccc21 | 7.22 | 20.9 | 6.55 | 14.9 µM | 6.07 µM | > 19.7 µM | 5.99 µM | 13.5 µM | 5.15 µM | 15.1 µM | 6.01 µM | 17.2 µM | 5.54 µM | 16.7 µM | 6.17 µM | 24.4 µM | 5.87 | > 25 µM | 3.7 | 20.6 µM |
| NS(=O)(=O)c1ccc(CCN=C=S)cc1 | 1.88 | 3.55 | 3.32 | 11.2 µM | 3.23 µM | 10.1 µM | 2.22 µM | 5.35 µM | 2.62 µM | 7.54 µM | 1.37 µM | 3.57 µM | 14.6 µM | 27.8 µM | 18.2 µM | 32.4 µM | 2.17 | 5.14 µM | 1.53 | 2.87 µM |
| C[C@@H]1C=C2C(=O)O[C@@H]3CC[C@H](C1)[C@]23O | 16.9 | 32.9 | – | 5.71 µM | 17.8 µM | 63.1 µM | 4.18 µM | 23.3 µM | 4.33 µM | 23 µM | 2.24 µM | 9.43 µM | 13.6 µM | 35.3 µM | 15.5 µM | 64.3 µM | 5.65 | 31.2 µM | 3.74 | 16.7 µM |
| NCCNC(=S)S | – | > 100 | – | > 100 µM | – | > 100 µM | – | 30 µM | – | > 100 µM | – | 16.6 µM | – | > 100 µM | – | > 100 µM | – | > 100 µM | – | > 100 µM |
| COc1cc2nc(Nc3cccc(F)c3)nc(Nc3cc(C)[nH]n3)c2cc1OC | 1.8 | 3.28 | 1.93 | 4.46 µM | 1.87 µM | 3.62 µM | 1.86 µM | 3.55 µM | 1.69 µM | 3.27 µM | 1.92 µM | 4.94 µM | 1.58 µM | 3.04 µM | 1.86 µM | 3.37 µM | 1.89 | 3.79 µM | 1.77 | 3.29 µM |
| CCCCCCCC[N+](C)(CCCCCCCC)CCCCCCCC | 0.305 | 1.17 | 0.14 | 0.366 µM | 0.473 µM | 1.61 µM | 0.224 µM | 0.713 µM | 0.267 µM | 1.13 µM | 0.223 µM | 0.746 µM | 0.261 µM | 0.826 µM | 0.468 µM | 1.71 µM | 0.337 | 1.24 µM | 0.465 | 1.62 µM |
| Cc1ccccc1C(C#N)C(=O)C(=O)Nc1cccc(Cl)c1 (stereo not given) | – | > 100 | – | > 100 µM | – | > 100 µM | – | > 100 µM | – | > 100 µM | – | > 100 µM | – | > 100 µM | – | > 100 µM | – | > 100 µM | – | > 100 µM |
| CCN(CC)C(=O)COc1ccc(Br)cc1Br | – | > 100 | – | > 100 µM | – | > 100 µM | – | > 100 µM | – | > 100 µM | – | > 100 µM | – | > 100 µM | – | > 100 µM | – | > 100 µM | – | > 100 µM |
| CN(C)CCCc1c[nH]c2ccccc12 | – | > 100 | – | > 100 µM | – | > 100 µM | – | > 100 µM | – | > 100 µM | – | > 100 µM | – | > 100 µM | – | > 100 µM | – | > 100 µM | – | > 100 µM |
| CCCc1nc2c(C)cc(-c3nc4ccccc4n3C)cc2n1Cc1ccc(-c2ccccc2C(=O)O)cc1 | 51.9 | > 100 | 28.8 | 77.4 µM | 43.5 µM | > 100 µM | 45.9 µM | > 100 µM | 51.5 µM | > 100 µM | 22 µM | 46.5 µM | 34.4 µM | > 100 µM | > 100 µM | > 100 µM | 33.3 | > 100 µM | 19.3 | 51.5 µM |
| CCOC(=O)c1c(C(F)(F)F)n([O-])c2ccc(OC)cc2[n+]1=O | 4.77 | 35.1 | 3.01 | 9.63 µM | 3.89 µM | 21.9 µM | 2.83 µM | 30.9 µM | 3.68 µM | 26.6 µM | 6.52 µM | 31 µM | 2.61 µM | 8.79 µM | 3.71 µM | 20.3 µM | 2.84 | 22.2 µM | 6.68 | > 100 µM |
| COc1ccc(NC(=O)c2sc3nc(C)c(C(O)c4ccccc4)cc3c2N)cc1 (stereo not given) | 2.48 | 24.1 | 2.76 | 10.3 µM | 3.67 µM | > 100 µM | 3.22 µM | 44.9 µM | 3.48 µM | > 100 µM | 2.21 µM | 20.4 µM | 1.25 µM | 18.2 µM | 4.59 µM | > 100 µM | 3.36 | > 100 µM | 2.62 | > 100 µM |
| COc1cc(-n2cc(-c3ccc(Cl)cc3)[nH]c2=O)cc(OC)c1OC | 47.4 | > 100 | > 100 | > 100 µM | 30.8 µM | 78.8 µM | 32 µM | 77.4 µM | 49.5 µM | > 100 µM | 19.9 µM | 54 µM | 30.9 µM | > 100 µM | 35.8 µM | 93 µM | 37.7 | > 100 µM | 22.5 | 64.4 µM |
| Cc1ccc(S(=O)(=O)N2CCc3ccc(O)c4c3C2Cc2cc(Cl)ccc2-4)cc1 (stereo not given) | 1.65 | 5.37 | 1.05 | 4.06 µM | 1.56 µM | 5.65 µM | 2.59 µM | 9.62 µM | 0.864 µM | 3.28 µM | 0.827 µM | 2.29 µM | 1.37 µM | 6.12 µM | 1.11 µM | 3.75 µM | 1.78 | 7.42 µM | 1.52 | 14.4 µM |
| COc1ccc(/C=C/c2n[nH]c3ccc(N4CCOC4=O)cc23)cc1 | 2.3 | 7.17 | 1.44 | 4.04 µM | 2.14 µM | 13 µM | 4.3 µM | 8.66 µM | 1.79 µM | 6.18 µM | 1.87 µM | 14.5 µM | 3.44 µM | 29.2 µM | 2.82 µM | 9.57 µM | 2.14 | > 100 µM | 2.52 | 9.92 µM |
